# From PMC3750913 (BMC Microbiology, 2013)
# Tests used:
# HCV [1] = experiment: Viral cell-to-cell spread assay; type: cell-based, hepatitis C virus; conditions: HCV
# Protocol: (A) Schematic of the experiment (left) with the virus concentration (PFU/well) and step-wise incubation periods (i, ii, iii) indicated for each virus in the table on the right. Virus infections were established (i) in the different cell types by direct inoculation (HCMV, DENV-2, MV, and RSV) or electroporation of viral RNA (HCV; *), and the cell monolayers were washed with citrate buffer or PBS before being covered with an overlay medium that prevents secondary infection. Initial virus plaques were allowed to form in the subsequent infections (ii), and then the test compounds were added to the overlay medium for an additional time of incubation (iii) before analysis of viral plaque size by immune fluorescence microscopy. Five random virus-positive plaques at the endpoint of the experiment were evaluated for each treatment group of viruses, and the data was plotted as “fold change of plaque area” against the size of the initial viral plaques formed prior to test compound treatment. Analyses for (B) HCMV, (C) HCV, (D) DENV-2, (E) MV, and (F) RSV are indicated in each additional panel. The S29 cell line and the FIP inhibitor were included as controls for HCV and MV, respectively. Results shown are means ± SEM from three independent experiments and representative micrographs of the evaluated plaques are provided in Additional file 1 Figure S1, Additional file 2 Figure S2, Additional file 3 Figure S3, Additional file 4 Figure S4 and Additional file 5 Figure S5. See text for details.
# The examination of HCV spread is based on previously described protocol with some modifications. Huh-7.5 cells were electroporated with HCV Jc1FLAG2(p7-nsGluc2A) RNA (10 μg) as described above to establish random productive infections in the cell population, and then mixed with naïve cells at a ratio of 1:1 before seeding in 12-well plates. […] Medium was changed 24 h post-electroporation with an overlay medium containing the test drugs or control and 0.5% methylcellulose, and the plates were further incubated for 5 days before analysis of HCV-positive foci through immunostaining.
# For immunofluorescence analysis of viral plaque size due to spread, the overlay media were removed and the wells were fixed with ice-cold methanol before blocking with 3% BSA. Samples were then treated at 37°C for 1 h with the respective mouse monoclonal primary antibodies diluted in PBS containing 3% BSA: anti-HCMV gB antibody (1:1,000), anti-NS5A 9E10 antibody for HCV (1:25,000), anti-flavivirus group antibody (1:400) for DENV-2, and anti-RSV fusion protein antibody (1:1,000). After incubation, the wells were washed with PBS three times before applying Alexa Fluor 488 goat anti-mouse IgG (H + L) antibody (Invitrogen), diluted at 1:1,000 (HCMV and RSV) or 1:400 (DENV-2 and HCV) in PBS containing 3% BSA. Following incubation at 37°C for 1 h, the samples were washed with PBS three times prior to visualization by fluorescence microscopy. The fluorescence expression of MV-EGFP could be readily detected without addition of antibodies. Photomicrographs were taken at × 100 magnification (Leica Microsystems; Wetzlar, Germany) and viral plaque sizes were then analyzed with MetaMorph software (Molecular Devices; Sunnyvale, CA, USA). In the case of HCV, cellular nuclei were stained with Hoechst dye (Sigma) prior to visualization and the number of cells in the virus-positive foci was determined. For all virus tested, a total of five random virus-positive plaques were evaluated for each treatment group per independent experiment. Comparison was made between viral plaques stained prior to drug addition and those at the endpoint of the experiment, and the data were plotted as “fold change of plaque area”.
# MV [2] = experiment: Viral cell-to-cell spread assay; type: cell-based, measles virus; conditions: MV
# HCV [3] = experiment: Viral attachment assay, method 1 (host cell infection); type: cell-based, hepatitis C virus; conditions: HCV, Huh-7.5 cells, 4°C; CHLA 50 μM, PUG 50 μM, Heparin 1000 μg/ml
# RSV [4] = experiment: Viral cell-to-cell spread assay; type: cell-based, respiratory syncytial virus; conditions: RSV
# DENV-2 [5] = experiment: Viral penetration assay; type: cell-based, dengue virus type 2; conditions: DENV-2, Vero cells; CHLA 25 μM, PUG 25 μM, Heparin 200 μg/ml
# MV [6] = experiment: Viral penetration assay; type: cell-based, measles virus; conditions: MV
# HCMV [7] = experiment: Viral penetration assay; type: cell-based, human cytomegalovirus; conditions: HCMV
# RSV [8] = experiment: Analysis of drug effects post viral entry; type: cell-based, respiratory syncytial virus; conditions: RSV, HEp-2 cells; CHLA 1 μM, PUG 2 μM, Heparin 1 μg/ml
# HCMV [9] = experiment: Viral inactivation assay; type: cell-based, human cytomegalovirus; conditions: HCMV, HEL cells; CHLA 60 μM, PUG 40 μM, Heparin 30 μg/ml
# HCMV [10] = experiment: Analysis of drug effects post viral entry; type: cell-based, human cytomegalovirus; conditions: HCMV, HEL cells; CHLA 60 μM, PUG 40 μM, Heparin 30 μg/ml
# RSV [11] = experiment: Viral attachment assay, method 2 (virus-specific cellular ELISA); type: cell-based, respiratory syncytial virus; conditions: RSV MOI 5, ELISA, 4°C; highest inhibitory concentration of the compounds
# DENV-2 [12] = experiment: Viral inactivation assay; type: cell-based, dengue virus type 2; conditions: DENV-2, Vero cells; CHLA 25 μM, PUG 25 μM, Heparin 200 μg/ml
# RSV [13] = experiment: Viral inactivation assay; type: cell-based, respiratory syncytial virus; conditions: RSV, HEp-2 cells; CHLA 1 μM, PUG 2 μM, Heparin 1 μg/ml
# DENV-2 [14] = experiment: Viral attachment assay, method 1 (host cell infection); type: cell-based, dengue virus type 2; conditions: DENV-2, Vero cells, 4°C; CHLA 25 μM, PUG 25 μM, Heparin 200 μg/ml
# HCMV [15] = experiment: as above; type: cell-based, human cytomegalovirus; conditions: HCMV, HEL cells, 4°C; CHLA 60 μM, PUG 40 μM, Heparin 30 μg/ml
# HCV [16] = experiment: Analysis of drug effects post viral entry; type: cell-based, hepatitis C virus; conditions: HCV, Huh-7.5 cells; CHLA 50 μM, PUG 50 μM, Heparin 1000 μg/ml
# DENV-2 [17] = experiment: Analysis of drug effects post viral entry; type: cell-based, dengue virus type 2; conditions: DENV-2, Vero cells; CHLA 25 μM, PUG 25 μM, Heparin 200 μg/ml
# DENV-2 [18] = experiment: Viral attachment assay, method 2 (virus-specific cellular ELISA); type: cell-based, dengue virus type 2; conditions: DENV-2 MOI 5, ELISA, 4°C; highest inhibitory concentration of the compounds
# HCMV [19] = experiment: as above; type: cell-based, human cytomegalovirus; conditions: HCMV MOI 5, ELISA, 4°C; highest inhibitory concentration of the compounds
# HCV [20] = experiment: as above; type: cell-based, hepatitis C virus; conditions: HCV MOI 0.1, ELISA, 4°C; highest inhibitory concentration of the compounds
# HCV [21] = experiment: Viral penetration assay; type: cell-based, hepatitis C virus; conditions: HCV
# ADV-5 = test system: ADV-5; set-up: method as in PMID 16894186, PMID 10704346; conditions: HS-mediated entry; ref [51], [52]; cited from earlier work
# MV [22] = experiment: Analysis of drug effects post viral entry; type: cell-based, measles virus; conditions: MV, CHO-SLAM cells; CHLA 90 μM, PUG 50 μM, Heparin 10 μg/ml
# RSV [23] = experiment: Viral attachment assay, method 1 (host cell infection); type: cell-based, respiratory syncytial virus; conditions: RSV, HEp-2 cells, 4°C; CHLA 1 μM, PUG 2 μM, Heparin 1 μg/ml
# MV [24] = experiment: as above; type: cell-based, measles virus; conditions: MV, CHO-SLAM cells, 4°C; CHLA 90 μM, PUG 50 μM, Heparin 10 μg/ml
# DENV-2 [25] = experiment: Viral cell-to-cell spread assay; type: cell-based, dengue virus type 2
# HCMV [26] = experiment: Viral cell-to-cell spread assay; type: cell-based, human cytomegalovirus; conditions: HCMV
# [27] = Huh-7.5 cells, CHLA 50 μM, PUG 50 μM, Heparin 1000 μg/ml
# [28] = CHO-SLAM cells, CHLA 90 μM, PUG 50 μM, Heparin 10 μg/ml
# [29] = HEL cells, CHLA 60 μM, PUG 40 μM, Heparin 30 μg/ml
substance,measurement,setting,value
Heparin [reference compound],"Window of antiviral effects: Cell-to-cell spread, inhibitory effect relative to DMSO control",HCV [1]; [27],- (- < 25%)
same,effect on viral plaque size (cell-to-cell spread),HCV [1]; Figure 7,limited effect
same,"Window of antiviral effects: Cell-to-cell spread, inhibitory effect relative to DMSO control",MV [2]; [28],- (- < 25%)
same,effect on viral plaque size (cell-to-cell spread),MV [2]; Figure 7,limited effect
same,"Window of antiviral effects: Attachment Method 1, inhibitory effect relative to DMSO control",HCV [3],+ (+ 25–50%)
same,"Window of antiviral effects: Cell-to-cell spread, inhibitory effect relative to DMSO control","RSV [4]; HEp-2 cells, CHLA 1 μM, PUG 2 μM, Heparin 1 μg/ml",- (- < 25%)
same,effect on viral plaque size (cell-to-cell spread),RSV [4]; Figure 7,limited effect
same,"Window of antiviral effects: Penetration, inhibitory effect relative to DMSO control",DENV-2 [5],++ (++ 50–75%)
same,"Window of antiviral effects: Penetration, inhibitory effect relative to DMSO control",MV [6]; [28],+ (+ 25–50%)
same,protection of the host cell from infection during virus penetration,"MV [6]; shift 4°C to 37°C, Figure 4",< 40%
same,"Window of antiviral effects: Penetration, inhibitory effect relative to DMSO control",HCMV [7]; [29],+ (+ 25–50%)
same,protection of the host cell from infection during virus penetration,"HCMV [7]; shift 4°C to 37°C, Figure 4",< 40%
same,"Window of antiviral effects: Post-infection, inhibitory effect relative to DMSO control",RSV [8],- (- < 25%)
same,"Window of antiviral effects: Free particle, inhibitory effect relative to DMSO control",HCMV [9],+ (+ 25–50%)
same,"Window of antiviral effects: Post-infection, inhibitory effect relative to DMSO control",HCMV [10],- (- < 25%)
same,"Window of antiviral effects: Attachment Method 2, inhibitory effect relative to DMSO control",RSV [11],++ (++ 50–75%)
same,"Window of antiviral effects: Free particle, inhibitory effect relative to DMSO control",DENV-2 [12],++ (++ 50–75%)
same,"Window of antiviral effects: Free particle, inhibitory effect relative to DMSO control",RSV [13],+ (+ 25–50%)
same,"Window of antiviral effects: Attachment Method 1, inhibitory effect relative to DMSO control",DENV-2 [14],+++ (+++ > 75%)
same,"Window of antiviral effects: Attachment Method 1, inhibitory effect relative to DMSO control",HCMV [15],++ (++ 50–75%)
same,"Window of antiviral effects: Post-infection, inhibitory effect relative to DMSO control",HCV [16],+ (+ 25–50%)
same,"Window of antiviral effects: Post-infection, inhibitory effect relative to DMSO control",DENV-2 [17],- (- < 25%)
same,"Window of antiviral effects: Attachment Method 2, inhibitory effect relative to DMSO control",DENV-2 [18],+++ (+++ > 75%)
same,"Window of antiviral effects: Attachment Method 2, inhibitory effect relative to DMSO control",HCMV [19],+++ (+++ > 75%)
same,"Window of antiviral effects: Attachment Method 2, inhibitory effect relative to DMSO control",HCV [20],+++ (+++ > 75%)
same,"Window of antiviral effects: Penetration, inhibitory effect relative to DMSO control",HCV [21]; [27],- (- < 25%)
same,protection of the host cell from infection during virus penetration,"HCV [21]; shift 4°C to 37°C, Figure 4",< 40%
same,maximum inhibition of ADV-5 by soluble heparin,ADV-5,≤ 50%
same,"Window of antiviral effects: Post-infection, inhibitory effect relative to DMSO control",MV [22],- (- < 25%)
same,"Window of antiviral effects: Attachment Method 1, inhibitory effect relative to DMSO control",RSV [23],+++ (+++ > 75%)
same,"Window of antiviral effects: Attachment Method 1, inhibitory effect relative to DMSO control",MV [24],+++ (+++ > 75%)
same,"Window of antiviral effects: Cell-to-cell spread, inhibitory effect relative to DMSO control","DENV-2 [25]; DENV-2, Vero cells, CHLA 25 μM, PUG 25 μM, Heparin 200 μg/ml",- (- < 25%)
same,effect on viral plaque size (cell-to-cell spread),"DENV-2 [25]; DENV-2, Figure 7",limited effect
same,"Window of antiviral effects: Cell-to-cell spread, inhibitory effect relative to DMSO control",HCMV [26]; [29],- (- < 25%)
same,effect on viral plaque size (cell-to-cell spread),HCMV [26]; Figure 7,limited effect
